Measured values from patent US10829798B2, “DNA-linked enzyme-coupled assays” (THE REGENTS OF THE UNIVERSITY OF CALIFORNIA, priority 2014, dated 2020).

Target: T1, GT06 (UGT89B1 (AT1G73880)) (Arabidopsis thaliana, UniProt Q9C9B0)
T1 sequence (Q9C9B0 1-473): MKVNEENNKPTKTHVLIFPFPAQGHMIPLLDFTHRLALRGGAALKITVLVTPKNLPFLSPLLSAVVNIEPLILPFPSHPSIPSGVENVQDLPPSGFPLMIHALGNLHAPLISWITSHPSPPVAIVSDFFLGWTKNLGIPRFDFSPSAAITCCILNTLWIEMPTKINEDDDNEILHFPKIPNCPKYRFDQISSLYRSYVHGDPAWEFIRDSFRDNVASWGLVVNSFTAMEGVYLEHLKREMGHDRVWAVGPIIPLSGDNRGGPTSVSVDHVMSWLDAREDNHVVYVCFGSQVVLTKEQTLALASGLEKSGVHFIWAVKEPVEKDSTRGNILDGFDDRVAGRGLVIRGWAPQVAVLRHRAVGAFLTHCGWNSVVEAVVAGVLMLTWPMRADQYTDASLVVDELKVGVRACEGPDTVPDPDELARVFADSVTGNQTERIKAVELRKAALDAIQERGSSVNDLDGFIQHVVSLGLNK
Experiment: qPCR DLEnCA, cell-free transcription/translation-derived GT06
Format: biochemical
Settings: GT06 DNA 5 nM, chemical 1 mM, UDP-Glc 2 μM, probe 0.2 nM; low recovery = substrate glucosylated
Experimental: FIG. 4A-FIG. 4D. qPCR DLEnCA and substrate specificity studies. A. Chemicals used as substrates in subsequent assays: (i) known substrates of OleD; (ii) flavone library; (iii) known substrates of GT05 (UGT72B1 (Q9M156)) and GT06 (UGT89B1 (AT1 G73880)). B. DNA encoding OleD (5 nM) was incubated in a cell-free transcription/translation system for 3 hours at 37° C., followed by the addition of chemical (1 mM) and UDP-Glc (2 μM). After a subsequent incubation of 3 hours, TbGT and probe (0.2 nM) were added. After probe purification and MfeI digestion, probe integrity was identified using qPCR. Percent recovery of probe is reported (n=8; error bars=standard error). C. DNA encoding OleD (5 nM) was incubated for 3 hours at 37° C. in a cell-free transcription/translation system, followed by the addition of flavone (1 mM) and UDP-Glc (2 μM). After a subsequent incubation of 3 hours, TbGT and probe (0.2 nM) were added. After probe purification and MfeI addition, probe integrity was identified using qPCR. Percent recovery of probe is reported (n=8; error bars=standard error). D. DNA encoding OleD, GT05, or GT06 (5 nM) were incubated for 3 hours at 37° C. in a cell-free transcription/translation system, followed by the addition of chemical (1 mM) and UDP-Glc (2 μM). After a subsequent incubation of 3 hours, TbGT and probe (0.2 nM) were added. […]

Structure (SMILES): O=C(O)c1ccc(O)cc1 [XI, 4-hydroxybenzoic acid]
- recovery of probe: 25%
